According to PMC6230509 (Neuropharmacology, 2018):
Like-named read-outs stand apart in the source and are kept apart here.

Assays:
5-HT2A receptor = conditions: read-out: Ki vs. [3H]ketanserin, ref Stevenson et al. 2000; cited from earlier work
[1] = tested on: 5-MeO-DMT discriminative stimulus; conditions: ref Glennon et al. 1980a; cited from earlier work
rat 5-HT2A receptor = conditions: read-out: Ki, rat 5-HT2A receptor; [3H]ketanserin; ref Gallaher et al. (1993); cited from earlier work
[2] = tested on: head twitch response (5-HT2A receptor-mediated); experiment: Head twitch response; type: in vivo, C57BL/6J mice; conditions: for activity in the HTR assay (in words): C57BL/6J mice, within the dose range tested; for ED50: Mus musculus, ip
[3] = tested on: recombinant human 5-HT2A receptors; conditions: ref Arunotayanun et al. 2013; cited from earlier work
[4] = tested on: DOM discriminative stimulus; conditions: ref Gatch et al. 2017; cited from earlier work
[5] = humans, ref Shulgin and Shulgin 2004, cited from earlier work
[6] = 0.875 mg/kg IP, duration 30 min
[7] = HTR, IP, male C57BL/6J mice, analysis block 5–30 min depending on drug
[8] = read-out: ED50 (95% CI) (mg/kg)
[9] = read-out: ED50 (95% CI) (μmol/kg)

CCN(CC)CCc1c(-c2ccccc2)[nH]c2ccccc12 [2-phenyl-N,N-diethyltryptamine]
Ki (5-HT2A receptor): 2.8 nM

CCc1cccc2c(CCN(C)C)c[nH]c12 [7-Ethyl-DMT]
substitution in rats trained to discriminate 5-MeO-DMT from vehicle [1]: partial substitution

CN(C)CCc1c[nH]c2cccc(O)c12 [psilocin, 4-hydroxy-DMT]
Ki (rat 5-HT2A receptor): 5100 nM

C=CCN(CC=C)CCc1c[nH]c2ccccc12 [DALT, N,N-diallyltryptamine]
HTR Counts (mean ± SEM) [2, 6]: 8.2 ± 2.8
HTR Counts (mean ± SEM) ([2]; 1.75 mg/kg IP, duration 30 min): 6.8 ± 2.6
HTR Counts (mean ± SEM) ([2]; 3.5 mg/kg IP, duration 30 min): 14.2 ± 4.3
HTR Counts (mean ± SEM) ([2]; 7 mg/kg IP, duration 30 min): 21.8 ± 4.4
HTR Counts (mean ± SEM) ([2]; 14 mg/kg IP, duration 30 min): 20.6 ± 2.7
activity in the HTR assay (in words) ([2]; IP): active
ED50 (95% CI) (mg/kg) [2, 7]: 3.42 (2.44–4.79) mg/kg
ED50 (95% CI) (μmol/kg) [2, 7]: 12.3 (8.8–17.3) μmol/kg

C=CCN(CC=C)CCc1c[nH]c2ccc(Br)cc12 [5-Br-DALT, 5-bromo-N,N-diallyltryptamine]
HTR Counts (mean ± SEM) ([2]; 3.5 mg/kg IP, duration 30 min): 5.0 ± 0.3
HTR Counts (mean ± SEM) ([2]; 7 mg/kg IP, duration 30 min): 10.8 ± 2.7
HTR Counts (mean ± SEM) ([2]; 14 mg/kg IP, duration 30 min): 8.6 ± 2.7
HTR Counts (mean ± SEM) ([2]; 28 mg/kg IP, duration 30 min): 1.4 ± 0.4
HTR Counts (mean ± SEM) ([2]; 56 mg/kg IP, duration 30 min): 1.4 ± 1.4
activity in the HTR assay (in words) ([2]; IP): active
ED50 [2, 8]: 4.8 mg/kg
ED50 [2, 9]: 13.5 µmol/kg

CN(C)CCc1c[nH]c2ccc(O)cc12 [bufotenine]
Ki (rat 5-HT2A receptor): 520 nM

CN(C)CCc1c(-c2ccccc2)[nH]c2ccccc12 [2-phenyl-N,N-dimethyltryptamine]
Ki (5-HT2A receptor): 4.4 nM

C=CCN(CC=C)CCc1c[nH]c2ccc(F)cc12 [5-F-DALT, 5-fluoro-N,N-diallyltryptamine]
HTR Counts (mean ± SEM) [2, 6]: 9.8 ± 2.6
HTR Counts (mean ± SEM) ([2]; 1.75 mg/kg IP, duration 30 min): 21.0 ± 5.7
HTR Counts (mean ± SEM) ([2]; 3.5 mg/kg IP, duration 30 min): 36.0 ± 6.8
HTR Counts (mean ± SEM) ([2]; 7 mg/kg IP, duration 30 min): 26.8 ± 7.1
HTR Counts (mean ± SEM) ([2]; 14 mg/kg IP, duration 30 min): 21.0 ± 4.0
activity in the HTR assay (in words) ([2]; IP): active
ED50 [2, 8]: 1.58 mg/kg
ED50 [2, 9]: 5.4 µmol/kg

C=CCN(CC=C)CCc1c[nH]c2ccc(OC)cc12 [5-MeO-DALT, 5-methoxy-N,N-diallyltryptamine]
functional activity at recombinant human 5-HT2A receptors [3]: agonist
HTR Counts (mean ± SEM) ([2]; 1.75 mg/kg IP, duration 20 min): 6.6 ± 1.0
HTR Counts (mean ± SEM) ([2]; 3.5 mg/kg IP, duration 20 min): 19.8 ± 1.5
HTR Counts (mean ± SEM) ([2]; 7 mg/kg IP, duration 20 min): 8.8 ± 2.6
HTR Counts (mean ± SEM) ([2]; 14 mg/kg IP, duration 20 min): 8.0 ± 4.9
activity in the HTR assay (in words) ([2]; IP): active
ED50 [2, 8]: 2.25 mg/kg
ED50 [2, 9]: 7.3 µmol/kg
substitution in rats trained to discriminate DOM [4]: full substitution
duration of psychoactive effects ([5]; oral 12–20 mg): 2 to 4 h
oral doses producing psychoactive effects ([5]; oral): 12 to 20 mg
